Assay in all cases: growth of human tumour cells (NCI), 48 h
The test system of test [1] is MALME-3M melanoma.
The test system of test [2] is PC-3 prostate.
The subject of test [3] is IGROV1 ovarian.
For test [4], the system named is NCI-H460 lung.
In test [5] the test system is HCT-116 colon.
Test [6] concerns DU-145 prostate.
Test [7] concerns NCI-H522 lung.
Test [8] has as its system KM12 colon.
Test [9] relates to RPMI-8226 leukemia.
For test [10], the system named is SF-295 CNS.
Test [11] deals with SNB-75 CNS.
For test [12], the system named is MDA-N.
For test [13], the system named is NCI-H226 lung.
The subject of test [14] is A498 renal.
Test [15] concerns BT-549 breast.
The test system of test [16] is ACHN renal.
The subject of test [17] is RXF 393 renal.
In test [18] the test system is SK-MEL-5 melanoma.
For test [19], the system named is MDA-MB-435.
Test [20] relates to NCI/ADR-RES ovarian.

SMILES strings stand for the structures.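 Five compound concentrations were applied to cells in 96-well plates for 48 hours; endpoints were derived by simple linear interpolation of the resulting dose-response curve. TGI is the concentration that stops growth completely.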

`CC1OC(OC2C(CO)OC(O[C@H]3CC[C@@]4(C)C(=CC[C@H]5[C@@H]6C[C@@H]7O[C@](O)(CC[C@H](C)COC8OC(CO)C(O)C(O)C8O)[C@@H](C)[C@@H]7[C@@]6(C)CC[C@@H]54)C3)C(OC3OC(C)C(O)C(O)C3O)C2O)C(O)C(O)C1O` (stereo not given in full): the TGI in test [1] is 18.9 µM; in test [2], 15.9 µM; in test [3], 23.1 µM; in test [4], above 45.7 µM; in [5] it was above 32.1 µM; in test [6], 5.92 µM. For the same molecule, the TGI stood at 7.53 µM in [7]; 5.69 µM in test [8]; 17.4 µM in test [9]; 23.1 µM in test [10]; 4.78 µM in [11]; 11.3 µM in test [12]. In addition, the TGI in test [13] is 85 µM; in test [14], above 100 µM; in [15], 18 µM; in test [16] it was 40.3 µM; in [17], 98.7 µM; in test [18], above 32.8 µM. Also, the TGI in [19] came out at 7.03 µM; in test [20] it was 18.4 µM.
Take `O=[N+]([O-])C(=C(N1CCCCC1)N1CCCCC1)/C(Cl)=C(\Cl)[N+](=O)[O-]`: the TGI in [1] was 6.28 µM; in test [2], 30 µM; in [3], 3.29 µM; in [4], 59.9 µM; in [5], 7.54 µM; in test [6] it was 7.72 µM. Besides, the TGI in [7] stood at 3.37 µM; in test [8] it was 41.7 µM; in test [9], 13.7 µM; in test [10], 46 µM; in test [11], 32.9 µM; in [12], 13.3 µM. Moreover, the TGI in test [13] was 45.7 µM; in test [14], 32.1 µM; in [15], 19 µM; in test [16] it was 9.24 µM; in [17], 2.94 µM; in test [18], 11 µM. The TGI in [19] was 19.3 µM; in test [20], 50.7 µM.
In the case of `CNCCCNC1(c2cc3ccccc3s2)CCCCC1`, the TGI is 4.57 µM in [1]; 21.5 µM in test [2]; 25.5 µM in test [3]; 9.09 µM in [4]; 14.9 µM in test [5]; 24.2 µM in test [6]. Moreover, the TGI in test [7] came to 19.1 µM; in test [8] it was 16.3 µM; in [9], 6.18 µM; in [10] it was 27.5 µM; in test [11], 19.5 µM; in test [12], 5.85 µM. Besides, the TGI in test [13] was found to be 36.6 µM; in test [14], 14.1 µM; in [15], 29.8 µM; in test [16], 26.9 µM; in test [17] it was 12.2 µM; in test [18], 5.68 µM. The TGI in test [19] amounted to 5.86 µM; in test [20] it was 29.9 µM.
In the case of `O=C1N=NC(=O)N1c1cc(C(F)(F)F)cc(C(F)(F)F)c1`, the TGI in test [1] is 14.2 µM; in [2], 12.8 µM; in [3], 14.8 µM; in [4], 13.4 µM; in test [5], 12.2 µM; in test [6], above 40 µM. For the same molecule, the TGI in test [7] was determined as 9.13 µM; in [8] it was 18.2 µM; in test [9], 22.1 µM; in test [10] it was 9.49 µM; in [11], 11.7 µM; in [12] it was 20.4 µM. The TGI stood at 12.4 µM in test [13]; 25.4 µM in [14]; 12.9 µM in test [15]; 14.2 µM in test [16]; 12.4 µM in test [17]; 7.62 µM in test [18]. Besides, the TGI is 33.2 µM in test [19] and 11.5 µM in [20].
On to `CN(C)C(=S)N/N=C(\C(=N/NC(=S)N(C)C)c1ccccn1)c1ccccn1`, for which the TGI in [1] amounted to 33.9 µM; in test [2], 24.4 µM; in test [3], 27.1 µM; in test [4], 22.7 µM; in [5] it was 25.1 µM; in test [6], 10.8 µM. The TGI is 9.26 µM in [7]; 33.6 µM in [8]; above 100 µM in test [9]; 29.6 µM in test [10]; 27.4 µM in test [11]; above 54 µM in [12]. The TGI in test [13] turned out to be 28.2 µM; in test [14], 30.2 µM; in test [15], 35.5 µM; in [16], 20.1 µM; in test [17] it was 18.1 µM; in [18] it was 24.5 µM. Besides, the figures for the TGI in test [19] and in test [20] were 26 µM and 62.1 µM, respectively.
On to `CC[C@@H]1CC[C@@H]2[C@H](CC[C@]3(C)[C@@H](O)CC[C@@H]23)[C@H]1CO`, for which the TGI in test [1], in test [2], in test [3], in test [4], in test [5] and in [6] was above 100 µM throughout. Besides, the TGI in test [7], in test [8], in test [9], in test [10], in test [11] and in [12] was above 100 µM in each case. Moreover, the TGI in [13], in [14], in test [15], in test [16], in test [17] and in [18] was above 100 µM each time. Moreover, the TGI in test [19] and in [20] was above 100 µM throughout.
For the molecule `Cc1coc2c1C(=O)C(=O)c1c-2ccc2c1CCCC2(C)C`, the TGI is 2.3 µM in [1]; above 44.7 µM in test [2]; 29.7 µM in [3]; 10.4 µM in [4]; 4.27 µM in test [5]; 9.9 µM in [6]. The TGI in test [7] is 3.98 µM; in test [8], above 92.3 µM; in test [9], above 33.9 µM; in test [10], 8.49 µM; in [11] it was 16.3 µM; in test [12], 2.8 µM. Also, the TGI in [13] was 11.2 µM; in test [14], 25.6 µM; in [15], 9.28 µM; in test [16], above 100 µM; in test [17] it was above 100 µM; in test [18], 1.19 µM. Besides, the TGI is 2.88 µM in test [19] and above 100 µM in test [20].

The record behind these values is PubChem BioAssay (NCI).
